From patent publication US20110251238A1, “PPAR AGONIST COMPOSITIONS AND METHODS OF USE” (BIOPHARMED, priority 2008, published 2011)
≈ marks a conversion by molar mass, not a printed value.

How the values were obtained:
[1] = tested on: bloodstream forms of T. brucei and T. congolense; experiment: Trypanocidal activity in vitro, Alamar Blue assay; format: cell-based, Trypanosoma brucei and T. congolense; conditions: 48 h total incubation
How it was run: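 Bloodstream-form trypanosomes exposed to compounds in H2O for 24 h, then Alamar Blue added for a further 24 h (48 h total). Absorbance read at 550 nm with 630 nm reference; duplicate wells, three repeats. HL-60 cytotoxicity run alongside: 43 h plus 5 h dye.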

GL19 = experiment: Growth inhibition, MTT colorimetric assay, GL19; format: cell-based; conditions: GL19, 72 h; 3 days with drug; means of six values; unit inferred; read-out: IC50 GL19
How it was run: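 Growth inhibition: cells cultured with drug 3 days, then MTT colorimetric readout. Cytotoxic activity given as IC50.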

caspases 8 = experiment: Caspases 8 activation in HL60 cells (IEDT reagent); format: cell-based, human; conditions: 48 hours, 1 μM, 0.1 μM and 0.01 μM
From the text: 7223, using standard commercially available diagnostic kits (Calbiochem, USA). Assay reagents used were DEVD for caspases 3/7, […] for caspases 8, and LEHD for caspases 9. Moreover, colchicine was used as reference compound that induces this activity of caspases.

Compound: Oc1ccc(CN(Cc2ccc(C(F)(F)F)cc2)Cc2ccc(O)c3ncccc23)c2cccnc12 [BPM18,708, 5,5′-(4-(trifluoromethyl)benzylazanediyl)bis(methylene)diquinolin-8-ol]
- GI50 ([1]; 50% growth inhibition, read-out: GI50): 310 ± 10 nM
- MIC ([1]; lowest concentration at which all cells were killed, read-out: MIC): 1 µM (≈ 0.489 µg/mL)
- IC50 (GL19): 1240 nM
- activation of caspases 8 (caspases 8): no effect
